Read-outs that look alike come from different tables or passages of the source.
Columns and labels:
Assay type in all cases: in vivo
[1] = test system: barnyardgrass (Echinochloa crus-galli); assay: Test B flooded paddy test; conditions: Echinochloa crus-galli, 250 g ai/ha, Flood, read-out: Barnyardgrass plant response rating
Outline: (§1)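 Rating scale 0–100 (visual, vs untreated controls) after a 13–15 d greenhouse period; application to the flood layer, 3 cm above soil and maintained; plants at 2-leaf stage when treated.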

[2] = test system: rice (Oryra sativa); assay: Test B flooded paddy test; conditions: Oryza sativa, 250 g ai/ha, Flood, read-out: Rice plant response rating
Outline: as §1

[3] = test system: sedge, umbrella (small-flower umbrella sedge, Cyperus difformis); assay: Test B flooded paddy test; conditions: Cyperus difformis, 250 g ai/ha, Flood, read-out: Sedge, Umbrella plant response rating
Outline: as §1

[4] = test system: ducksalad (Heteranthera limosa); assay: Test B flooded paddy test; conditions: Heteranthera limosa, 250 g ai/ha, Flood, read-out: Ducksalad plant response rating
Outline: as §1

[5] = test system: pigweed (Amaranthus retroflexus); assay: Test A preemergence; conditions: Amaranthus retroflexus, pre-emergence, 240 h; for pest or weed control at 125 g/ha: 125 g ai/ha; for pest or weed control at 500 g/ha: 500 g ai/ha
[6] = test system: barnyardgrass (Echinochloa crus-galli); assay: Test A postemergence; conditions: Echinochloa crus-galli, post-emergence, 240 h, postemergence; for pest or weed control at 125 g/ha: 125 g ai/ha
Outline: (§2)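 Each rating is a visual injury score from 0 to 100 given about 10 d after treatment, judged against untreated controls kept alongside in the greenhouse. In loam soil–sand blend, seeds got a preemergence directed soil spray, while postemergence plants were 2 to 10 cm tall at spraying.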

[7] = test system: Galium (catchweed bedstraw, Galium aparine); assay: Test A postemergence; conditions: Galium, post-emergence, 240 h, postemergence; for pest or weed control at 125 g/ha: 125 g ai/ha
Outline: as §2

[8] = test system: corn (Zea mays); assay: Test A postemergence; conditions: Zea mays, post-emergence, 240 h, postemergence; for plant injury at 125 g/ha: 125 g ai/ha
Outline: as §2

[9] = test system: blackgrass (Alopecurus myosuroides); assay: Test A postemergence; conditions: Alopecurus myosuroides, post-emergence, 240 h, postemergence; for pest or weed control at 125 g/ha: 125 g ai/ha
Outline: as §2

[10] = test system: wheat (Triticum aestivum); assay: Test A postemergence; conditions: Triticum aestivum, post-emergence, 240 h, 125 g ai/ha, postemergence
Outline: as §2

[11] = test system: Kochia (Kochia scoparia); assay: Test A postemergence; conditions: Bassia scoparia, post-emergence, 240 h, postemergence; for pest or weed control at 125 g/ha: 125 g ai/ha
Outline: as §2

[12] = test system: ragweed (common ragweed, Ambrosia elatior); assay: Test A postemergence; conditions: Ambrosia artemisiifolia, post-emergence, 240 h, 125 g ai/ha, postemergence
Outline: as §2

[13] = test system: giant foxtail (Setaria faberii); assay: Test A postemergence; conditions: Setaria faberi, post-emergence, 240 h, postemergence; for pest or weed control at 125 g/ha: 125 g ai/ha
Outline: as §2

[14] = test system: pigweed (Amaranthus retroflexus); assay: Test A postemergence; conditions: Amaranthus retroflexus, post-emergence, 240 h, 125 g ai/ha, postemergence
Outline: as §2

[15] = test system: ryegrass, Italian (Italian ryegrass, Lolium multiflorum); assay: Test A postemergence; conditions: Lolium multiflorum, post-emergence, 240 h, 125 g ai/ha, postemergence
Outline: as §2

[16] = 0 to 100 scale where 0 is no effect and 100 is complete control
[17] = scale of 0 to 100 where 0 is no effect and 100 is complete control

Compound `O=C(Nc1cccc(F)c1F)[C@H]1C(=S)NC[C@@H]1c1ccc(C(F)(F)F)cc1` (racemic) [Compound 1048] has a pest or weed control at 250 g/ha [1, 16] of 30%, a pest or weed control at 250 g/ha [2, 16] of 0% and a pest or weed control at 250 g/ha [3, 16] of 0%. The pest or weed control at 250 g/ha [4, 16] was 50%, the pest or weed control at 125 g/ha ([5]; Preemergence, visual injury rating after approximately 10 d, read-out: Pigweed plant response rating (0 to 100 scale, 0 is no effect, 100 is complete control)) was 80% and the pest or weed control at 500 g/ha ([5]; preemergence, visual injury rating about 10 d after treatment, 0 to 100 scale (0 no effect, 100 complete control), read-out: Pigweed plant response rating) was 90%. For the same compound, the pest or weed control at 125 g/ha ([6]; visual injury on 0 to 100 scale (0 no effect, 100 complete control), approx. 10 d, read-out: Barnyardgrass plant response rating) was 50%, the pest or weed control at 500 g/ha ([6]; 500 g ai/ha, visual injury, 0 to 100 scale (0 no effect, 100 complete control), approx. 10 d, read-out: Plant response rating, Barnyardgrass) was 80% and the pest or weed control at 125 g/ha ([7]; visual injury on 0 to 100 scale (0 no effect, 100 complete control), approx. 10 d, read-out: Galium plant response rating) was 0%. The pest or weed control at 500 g/ha ([7]; 500 g ai/ha, visual injury, 0 to 100 scale (0 no effect, 100 complete control), approx. 10 d, read-out: Plant response rating, Galium) was 60%, the plant injury at 125 g/ha ([8]; visual injury on 0 to 100 scale (0 no effect, 100 complete control), approx. 10 d, read-out: Corn plant response rating) was 20% and the Corn plant response rating (crop injury, 0 = no effect, 100 = complete kill) at 500 g/ha ([8]; 500 g ai/ha, visual injury, 0 to 100 scale (0 no effect, 100 complete control), approx. 10 d) was 40%. The pest or weed control at 125 g/ha ([9]; visual injury on 0 to 100 scale (0 no effect, 100 complete control), approx. 10 d, read-out: Blackgrass plant response rating) was 20%, the pest or weed control at 500 g/ha ([9]; 500 g ai/ha, visual injury, 0 to 100 scale (0 no effect, 100 complete control), approx. 10 d, read-out: Plant response rating, Blackgrass) was 30% and the plant injury at 125 g/ha ([10]; visual injury on 0 to 100 scale (0 no effect, 100 complete control), approx. 10 d, read-out: Wheat plant response rating) was 20%. For the same compound, the pest or weed control at 125 g/ha ([11]; visual injury on 0 to 100 scale (0 no effect, 100 complete control), approx. 10 d, read-out: Kochia plant response rating) was 30%, the pest or weed control at 500 g/ha ([11]; 500 g ai/ha, visual injury, 0 to 100 scale (0 no effect, 100 complete control), approx. 10 d, read-out: Plant response rating, Kochia) was 60% and the pest or weed control at 125 g/ha ([12]; visual injury on 0 to 100 scale (0 no effect, 100 complete control), approx. 10 d, read-out: Ragweed plant response rating) was 0%. For the same compound, the pest or weed control at 125 g/ha ([13]; visual injury on 0 to 100 scale (0 no effect, 100 complete control), approx. 10 d, read-out: Foxtail, Giant plant response rating) was 60%, the pest or weed control at 500 g/ha ([13]; 500 g ai/ha, visual injury, 0 to 100 scale (0 no effect, 100 complete control), approx. 10 d, read-out: Plant response rating, Foxtail, Giant) was 80% and the pest or weed control at 125 g/ha ([14]; visual injury on 0 to 100 scale (0 no effect, 100 complete control), approx. 10 d, read-out: Pigweed plant response rating) was 30%. For the same compound, the pest or weed control at 125 g/ha ([15]; visual injury on 0 to 100 scale (0 no effect, 100 complete control), approx. 10 d, read-out: Ryegrass, Italian plant response rating) was 30%.
`COc1c(F)ccc([C@H]2CN(C)C(=O)[C@@H]2C(=O)Nc2ccccc2F)c1Cl` [Compound 892] showed a pest or weed control at 250 g/ha [1, 17] of 65%, a pest or weed control at 250 g/ha [2, 17] of 0% and a pest or weed control at 250 g/ha [3, 17] of 0%. The pest or weed control at 250 g/ha [4, 17] was 80%, the pest or weed control at 125 g/ha ([5]; preemergence, 0 to 100 scale where 0 is no effect and 100 is complete control, read-out: Pigweed plant response rating) was 0% and the pest or weed control at 500 g/ha ([5]; Preemergence, visual injury vs untreated controls after approximately 10 d, read-out: Pigweed plant response rating (0 to 100 scale where 0 is no effect and 100 is complete control)) was 40%. It also gave a pest or weed control at 125 g/ha ([6]; visual injury rating after approximately 10 d, read-out: Barnyardgrass plant response rating (0 to 100 scale, 0 no effect, 100 complete control)) of 90%, a pest or weed control at 125 g/ha ([7]; visual injury rating after approximately 10 d, read-out: Galium plant response rating (0 to 100 scale, 0 no effect, 100 complete control)) of 20% and a plant injury at 125 g/ha ([8]; visual injury rating after approximately 10 d, read-out: Corn plant response rating (0 to 100 scale, 0 no effect, 100 complete control)) of 0%. For the same compound, the pest or weed control at 125 g/ha ([9]; visual injury rating after approximately 10 d, read-out: Blackgrass plant response rating (0 to 100 scale, 0 no effect, 100 complete control)) was 0%, the plant injury at 125 g/ha ([10]; visual injury rating after approximately 10 d, read-out: Wheat plant response rating (0 to 100 scale, 0 no effect, 100 complete control)) was 0% and the pest or weed control at 125 g/ha ([11]; visual injury rating after approximately 10 d, read-out: Kochia plant response rating (0 to 100 scale, 0 no effect, 100 complete control)) was 40%. For the same compound, the pest or weed control at 125 g/ha ([12]; visual injury rating after approximately 10 d, read-out: Ragweed plant response rating (0 to 100 scale, 0 no effect, 100 complete control)) was 0%, the pest or weed control at 125 g/ha ([13]; visual injury rating after approximately 10 d, read-out: Foxtail, Giant plant response rating (0 to 100 scale, 0 no effect, 100 complete control)) was 90% and the pest or weed control at 125 g/ha ([14]; visual injury rating after approximately 10 d, read-out: Pigweed plant response rating (0 to 100 scale, 0 no effect, 100 complete control)) was 0%. For the same compound, the pest or weed control at 125 g/ha ([15]; visual injury rating after approximately 10 d, read-out: Ryegrass, Italian plant response rating (0 to 100 scale, 0 no effect, 100 complete control)) was 60%.

From patent US12077503B2, “Substituted cyclic amides and their use as herbicides” (FMC CORPORATION, priority 2015, dated 2024)
